Tests used:
Type in all cases: cell-based, human
[1] = system: TBP; assay: DNA microarray, TBP reference gene expression in fibroblasts exposed to genistein
Experimental: (§1) The experiments were conducted to characterise the transcriptomic profile of human fibroblast cells exposed to genistein, and in particular to determine the expression of genes encoding lysosomal enzymes involved in metabolism (i.e. synthesis and degradation) of organic substances. The absence or deficiency of these enzymes' activity is responsible for occurrence of various lysosomal storage diseases (LSD) (including MPS). The tested hypothesis assumed that genistein influences the expression of many genes, among which there are genes coding for enzymes required in metabolism of compounds, which are pathologically stored in LSD. The results provide important information regarding genistein action on the molecular level within the range of gene expression modulation by this substance. The experiment was conducted in biological quintuplicates. Human dermal fibroblasts (HDFa) were exposed in vitro for 1, 24 or 48 hours to: 30, 60 or 100 μM of genistein; 0.05% DMSO (K1); or were untreated (control cells) (K2), and total RNA was isolated and analysed.
(§2) Fibroblast cells were grown in Dulbecco (DMEM) medium supplemented with 10% fetal bovine serum (FBS) with the addition of 1% antibiotics and anti-fungal agents at 37° C. in humidified atmosphere of 5% CO2, until the required confluency was obtained.
(§3) To determine the effect of tested compound on the transcriptom of the fibroblast cells, the growth medium was replaced with fresh medium, either non-supplemented (0.05% DMSO), or containing genistein (30, 60 or 100 μM, in 0.05% DMSO). The exposure was done for 1, 24 or 48 hours.
(§4) Total RNA was isolated from fibroblasts using High Pure RNA Isolation Kit according to the protocol and then it was quantitatively evaluated using Quant-It™ RiboGreen® Assay Kit.
(§5) Biotinylated cRNA was prepared using Ambion Total PrepAmp Kit for Illumina arrays.
(§6) Standard hybridization and quantitative image analysis procedures—Illumina hybridization protocol and Illumina scanning protocol, were used.
(§7) Processing of the results was done during data definition, including: background correction (using background subtraction method), normalization (using quantile normalization algorithm with Illumina GenomeStudio software package: gene expression module version 1.9.0) and summarization (using method, which sums the values of signal intensities from a set of probes).

[2] = system: ST3GAL2; assay: DNA microarray, ST3GAL2 expression in fibroblasts exposed to genistein
Experimental: as §1, §2, §3, §4, §5, §6, §7

[3] = system: ST3GAL4; assay: DNA microarray, ST3GAL4 expression in fibroblasts exposed to genistein
Experimental: as §1, §2, §3, §4, §5, §6, §7

[4] = system: SGSH; assay: DNA microarray, SGSH expression in fibroblasts exposed to genistein; conditions: for SGSH fold change Average: 48 h vs DMSO
Experimental: as §1, §2, §3, §4, §5, §6, §7

[5] = system: GNS; assay: DNA microarray, GNS expression in fibroblasts exposed to genistein; conditions: for GNS fold change Average: 48 h vs DMSO
Experimental: as §1, §2, §3, §4, §5, §6, §7

[6] = system: HEXA; assay: DNA microarray, HEXA expression in fibroblasts exposed to genistein; conditions: for HEXA fold change Average: 48 h vs DMSO
Experimental: as §1, §2, §3, §4, §5, §6, §7

[7] = system: HYAL3; assay: DNA microarray, HYAL3 expression in fibroblasts exposed to genistein; conditions: 30 μM
Experimental: as §1, §2, §3, §4, §5, §6, §7

O=c1c(-c2ccc(O)cc2)coc2cc(O)cc(O)c12 [genistein, 4′,5,7-trihydroxy-3-phenylchromen-4-one]
TBP fold change Average 1h30/1hK1 ([1]; 30 μM, 1 h vs 0.05% DMSO): 0.974 fold change | TBP fold change Average 24h30/24hK1 ([1]; 30 μM, 24 h vs 0.05% DMSO): 0.8816 fold change | TBP fold change Average 48h30/48hK1 ([1]; 30 μM, 48 h vs 0.05% DMSO): 0.9265 fold change | TBP fold change Average 1h60/1hK1 ([1]; 60 μM, 1 h vs 0.05% DMSO): 0.9183 fold change | TBP fold change Average 24h60/24hK1 ([1]; 60 μM, 24 h vs 0.05% DMSO): 0.7892 fold change | TBP fold change Average 48h60/48hK1 ([1]; 60 μM, 48 h vs 0.05% DMSO): 0.9926 fold change | TBP fold change Average 1h100/1hK1 ([1]; 100 μM, 1 h vs 0.05% DMSO): 0.9531 fold change | TBP fold change Average 24h100/24hK1 ([1]; 100 μM, 24 h vs 0.05% DMSO): 0.8303 fold change | TBP fold change Average 48h100/48hK1 ([1]; 100 μM, 48 h vs 0.05% DMSO): 0.8862 fold change | ST3GAL2 fold change Average 1h30/1hK1 ([2]; 30 μM, 1 h vs 0.05% DMSO): 1.155 fold change | ST3GAL2 fold change Average 24h30/24hK1 ([2]; 30 μM, 24 h vs 0.05% DMSO): 0.7505 fold change | ST3GAL2 fold change Average 48h30/48hK1 ([2]; 30 μM, 48 h vs 0.05% DMSO): 0.797 fold change | ST3GAL2 fold change Average 1h60/1hK1 ([2]; 60 μM, 1 h vs 0.05% DMSO): 1.467 fold change | ST3GAL2 fold change Average 24h60/24hK1 ([2]; 60 μM, 24 h vs 0.05% DMSO): 0.5068 fold change | ST3GAL2 fold change Average 1h100/1hK1 ([2]; 100 μM, 1 h vs 0.05% DMSO): 1.338 fold change | ST3GAL2 fold change Average 24h100/24hK1 ([2]; 100 μM, 24 h vs 0.05% DMSO): 0.6299 fold change | ST3GAL2 fold change Average 48h100/48hK1 ([2]; 100 μM, 48 h vs 0.05% DMSO): 0.7215 fold change | ST3GAL4 fold change Average 1h30/1hK1 ([3]; 30 μM, 1 h vs 0.05% DMSO): 0.9885 fold change | ST3GAL4 fold change Average 24h30/24hK1 ([3]; 30 μM, 24 h vs 0.05% DMSO): 0.782 fold change | ST3GAL4 fold change Average 48h30/48hK1 ([3]; 30 μM, 48 h vs 0.05% DMSO): 1.065 fold change | ST3GAL4 fold change Average 1h60/1hK1 ([3]; 60 μM, 1 h vs 0.05% DMSO): 0.9205 fold change | ST3GAL4 fold change Average 24h60/24hK1 ([3]; 60 μM, 24 h vs 0.05% DMSO): 0.9205 fold change | ST3GAL4 fold change Average 48h61/48hK1 ([3]; 60 μM, 48 h vs 0.05% DMSO): 0.9931 fold change | ST3GAL4 fold change Average 1h100/1hK1 ([3]; 100 μM, 1 h vs 0.05% DMSO): 0.8637 fold change | ST3GAL4 fold change Average 24h100/24hK1 ([3]; 100 μM, 24 h vs 0.05% DMSO): 0.6646 fold change | ST3GAL4 fold change Average 48h100/48hK1 ([3]; 100 μM, 48 h vs 0.05% DMSO): 0.8911 fold change | SGSH fold change Average 1h30/1hK1 ([4]; 30 μM, 1 h vs 0.05% DMSO): 1.0703 fold change | SGSH fold change Average 1h60/1hK1 ([4]; 60 μM, 1 h vs 0.05% DMSO): 1.065 fold change | SGSH fold change Average ([4]; 60 μM): 1.122 fold change | SGSH fold change Average 1h100/1hK1 ([4]; 100 μM, 1 h vs 0.05% DMSO): 1.07 fold change | SGSH fold change Average ([4]; 100 μM): 0.9299 fold change | GNS fold change Average 1h30/1hK1 ([5]; 30 μM, 1 h vs 0.05% DMSO): 1.0062 fold change | GNS fold change Average ([5]; 30 μM): 1.2473 fold change | GNS fold change Average 1h60/1hK1 ([5]; 60 μM, 1 h vs 0.05% DMSO): 1.022 fold change | GNS fold change Average ([5]; 60 μM): 1.495 fold change | GNS fold change Average 1h100/1hK1 ([5]; 100 μM, 1 h vs 0.05% DMSO): 1.0219 fold change | GNS fold change Average ([5]; 100 μM): 1.418 fold change | HEXA fold change Average 1h30/1hK1 ([6]; 30 μM, 1 h vs 0.05% DMSO): 1.2226 fold change | HEXA fold change Average ([6]; 30 μM): 1.0817 fold change | HEXA fold change Average 1h60/1hK1 ([6]; 60 μM, 1 h vs 0.05% DMSO): 1.174 fold change | HEXA fold change Average ([6]; 60 μM): 1.474 fold change | HEXA fold change Average 1h100/1hK1 ([6]; 100 μM, 1 h vs 0.05% DMSO): 1.042 fold change | HEXA fold change Average ([6]; 100 μM): 1.621 fold change | HYAL3 fold change Average 1h30/1hK1 ([7]; 1 h vs 0.05% DMSO): 1.1887 fold change | HYAL3 fold change Average ([7]; 48 h vs DMSO): 0.8605 fold change

From US20150148551A1, “GENISTEIN FOR REDUCING LEVELS OF STORAGE COMPOUNDS IN THE TREATMENT AND/OR PREVENTION OF LYSOSOMAL STORAGE DISEASES (LSDS)” (3G THERAPEUTICS, INC., priority 2012, published 2015)
